Target: T1, human GPR17 receptor (Homo sapiens, UniProt Q13304)
T1 construct: host or cells: HEK-293
Test: Calcium mobilization functional assay (Fluo-8, FLIPR TETRA) in HEK-293 hGPR17 (Gα-q assay)
Format: cell-based
Details: antagonism of MDL29,951 (~EC80) induced Ca2+ signal; cell line (HEK-293 hGPR17 or HEK-293 Suchi5 hGPR17) not given
Procedure, shortened: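 Fluo-8-loaded HEK-293 hGPR17 cells (60 min dye loading, room temperature) were preincubated with compound for twenty minutes, then challenged with agonist MDL29,951 at ~EC80, 500 nM. Intracellular calcium release via Gα-q was recorded as FLIPR fluorescence for a further 2 minutes; compounds tested in duplicate.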

T1 sequence (Q13304 whole entry): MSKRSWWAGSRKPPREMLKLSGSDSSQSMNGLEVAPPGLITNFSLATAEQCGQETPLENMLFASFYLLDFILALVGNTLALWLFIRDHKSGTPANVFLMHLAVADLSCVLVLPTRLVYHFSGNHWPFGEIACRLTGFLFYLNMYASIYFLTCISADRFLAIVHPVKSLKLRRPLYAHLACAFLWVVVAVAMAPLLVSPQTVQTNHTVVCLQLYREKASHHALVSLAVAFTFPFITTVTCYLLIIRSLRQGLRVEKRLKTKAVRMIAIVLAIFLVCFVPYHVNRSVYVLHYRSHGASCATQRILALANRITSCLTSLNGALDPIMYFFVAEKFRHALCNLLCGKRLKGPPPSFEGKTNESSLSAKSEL

IC50, 500 to 5000 nM:
N#Cc1ccc(NS(=O)(=O)c2c[nH]cc2CC2CCCCC2)c(F)c1 [Cpd 616, N-(4-cyano-2-fluorophenyl)-4-(cyclohexylmethyl)-1H-pyrrole-3-sulfonamide]
O=S(=O)(Nc1cc(F)c(C(F)(F)F)cc1F)c1c[nH]c(-c2cnccn2)c1 [Cpd 618, N-[2,5-difluoro-4-(trifluoromethyl)phenyl]-5-pyrazin-2-yl-1H-pyrrole-3-sulfonamide]
Cn1cnc2c(-c3cc(S(=O)(=O)Nc4ccc(C#N)cc4F)c[nH]3)cccc21 [Cpd 620, N-(4-cyano-2-fluorophenyl)-5-(1-methylbenzimidazol-4-yl)-1H-pyrrole-3-sulfonamide]
O=S(=O)(Nc1cc(F)c(C(F)(F)F)cc1F)c1c[nH]c(C2CCC(F)(F)C2)c1 (stereo not shown) [Cpd 621, 5-(3,3-difluorocyclopentyl)-N-[2,5-difluoro-4-(trifluoromethyl)phenyl]-1H-pyrrole-3-sulfonamide]
N#Cc1ccc(NS(=O)(=O)c2c[nH]c(CC3CC3)c2)c(F)c1 [Cpd 622, N-(4-cyano-2-fluorophenyl)-5-(cyclopropylmethyl)-1H-pyrrole-3-sulfonamide]
N#Cc1ccc(NS(=O)(=O)c2c[nH]cc2Cc2ccncc2)c(F)c1 [Cpd 624, N-(4-cyano-2-fluorophenyl)-4-(pyridin-4-ylmethyl)-1H-pyrrole-3-sulfonamide]
O=S(=O)(Nc1cc(F)c(C(F)(F)F)cc1F)c1cc(-c2ccccc2)[nH]c1F [Cpd 627, N-[2,5-difluoro-4-(trifluoromethyl)phenyl]-2-fluoro-5-phenyl-1H-pyrrole-3-sulfonamide]
O=S(=O)(Nc1ncc(C(F)(F)F)s1)c1c[nH]c(-c2ccccc2)c1 [Cpd 630, 5-phenyl-N-[5-(trifluoromethyl)-1,3-thiazol-2-yl]-1H-pyrrole-3-sulfonamide]
N#Cc1cnc(NS(=O)(=O)c2c[nH]c(-c3ccccc3)c2)s1 [Cpd 631, N-(5-cyano-1,3-thiazol-2-yl)-5-phenyl-1H-pyrrole-3-sulfonamide]
O=S(=O)(Nc1cc(F)c(OC(F)F)cc1F)c1c[nH]c(-c2ncc(C(F)(F)F)s2)c1 [Cpd 637, N-[4-(difluoromethoxy)-2,5-difluorophenyl]-5-[5-(trifluoromethyl)-1,3-thiazol-2-yl]-1H-pyrrole-3-sulfonamide]

IC50, 5000 to 50000 nM:
N#Cc1ccc(NS(=O)(=O)c2c[nH]c(-c3cccn(CC(F)(F)F)c3=O)c2)c(F)c1 [Cpd 614, N-(4-cyano-2-fluorophenyl)-5-[2-oxo-1-(2,2,2-trifluoroethyl)pyridin-3-yl]-1H-pyrrole-3-sulfonamide]
N#Cc1cnc(-c2cc(S(=O)(=O)Nc3cc(F)c(OC(F)F)cc3F)c[nH]2)s1 [Cpd 617, 5-(5-cyano-1,3-thiazol-2-yl)-N-[4-(difluoromethoxy)-2,5-difluorophenyl]-1H-pyrrole-3-sulfonamide]
N#Cc1ccc(NS(=O)(=O)c2c[nH]cc2CCc2ccccc2)c(F)c1 [Cpd 625, N-(4-cyano-2-fluorophenyl)-4-(2-phenylethyl)-1H-pyrrole-3-sulfonamide]
N#Cc1sc(NS(=O)(=O)c2c[nH]c(-c3ccccc3)c2)cc1F [Cpd 644, N-(5-cyano-4-fluorothiophen-2-yl)-5-phenyl-1H-pyrrole-3-sulfonamide]

IC50, < 500 nM:
N#Cc1cc(F)c(NS(=O)(=O)c2c[nH]c(-c3cccc4ccoc34)c2)cc1F [Cpd 615, 5-(1-benzofuran-7-yl)-N-(4-cyano-2,5-difluorophenyl)-1H-pyrrole-3-sulfonamide]
O=S(=O)(Nc1cc(F)c(C(F)(F)F)cc1F)c1c[nH]c(-c2cccnn2)c1 [Cpd 619, N-[2,5-difluoro-4-(trifluoromethyl)phenyl]-5-pyridazin-3-yl-1H-pyrrole-3-sulfonamide]
O=S(=O)(Nc1cc(F)c(C(F)(F)F)cc1F)c1c[nH]c(-c2ccccc2)c1F [Cpd 626, N-[2,5-difluoro-4-(trifluoromethyl)phenyl]-4-fluoro-5-phenyl-1H-pyrrole-3-sulfonamide]
O=S(=O)(Nc1cc(F)c(OC(F)F)cc1F)c1c[nH]c(-c2cncs2)c1 [Cpd 628, N-[4-(difluoromethoxy)-2,5-difluorophenyl]-5-(1,3-thiazol-5-yl)-1H-pyrrole-3-sulfonamide]
O=S(=O)(Nc1cc(F)c(OC(F)F)cc1F)c1c[nH]c(-c2cscn2)c1 [Cpd 629, N-[4-(difluoromethoxy)-2,5-difluorophenyl]-5-(1,3-thiazol-4-yl)-1H-pyrrole-3-sulfonamide]
N#CCOc1cc(F)c(NS(=O)(=O)c2c[nH]c(-c3ccccc3)c2F)cc1F [Cpd 632, N-[4-(cyanomethoxy)-2,5-difluorophenyl]-4-fluoro-5-phenyl-1H-pyrrole-3-sulfonamide]
COc1csc(-c2cc(S(=O)(=O)Nc3cc(F)c(OC(F)F)cc3F)c[nH]2)n1 [Cpd 633, N-[4-(difluoromethoxy)-2,5-difluorophenyl]-5-(4-methoxy-1,3-thiazol-2-yl)-1H-pyrrole-3-sulfonamide]
Cc1csc(-c2cc(S(=O)(=O)Nc3cc(F)c(OC(F)F)cc3F)c[nH]2)n1 [Cpd 634, N-[4-(difluoromethoxy)-2,5-difluorophenyl]-5-(4-methyl-1,3-thiazol-2-yl)-1H-pyrrole-3-sulfonamide]
O=S(=O)(Nc1cc(F)c(OC(F)F)cc1F)c1c[nH]c(-c2ccsn2)c1 [Cpd 635, N-[4-(difluoromethoxy)-2,5-difluorophenyl]-5-(1,2-thiazol-3-yl)-1H-pyrrole-3-sulfonamide]
O=S(=O)(Nc1cc(F)c(OC(F)F)cc1F)c1c[nH]c(-c2ncco2)c1 [Cpd 636, N-[4-(difluoromethoxy)-2,5-difluorophenyl]-5-(1,3-oxazol-2-yl)-1H-pyrrole-3-sulfonamide]
O=S(=O)(Nc1cc(F)c(OC(F)F)cc1F)c1c[nH]c(-c2ccns2)c1 [Cpd 638, N-[4-(difluoromethoxy)-2,5-difluorophenyl]-5-(1,2-thiazol-5-yl)-1H-pyrrole-3-sulfonamide]
O=S(=O)(Nc1cc(F)c(OC(F)F)cc1F)c1c[nH]c(-c2cnsc2)c1 [Cpd 639, N-[4-(difluoromethoxy)-2,5-difluorophenyl]-5-(1,2-thiazol-4-yl)-1H-pyrrole-3-sulfonamide]
N#Cc1cc(F)c(NS(=O)(=O)c2c[nH]c(-c3ccoc3)c2)cc1F [Cpd 640, N-(4-cyano-2,5-difluorophenyl)-5-(furan-3-yl)-1H-pyrrole-3-sulfonamide]
N#Cc1ccc(NS(=O)(=O)c2c[nH]c(-c3cncs3)c2)c(F)c1 [Cpd 641, N-(4-cyano-2-fluorophenyl)-5-(1,3-thiazol-5-yl)-1H-pyrrole-3-sulfonamide]
N#Cc1cc(F)c(NS(=O)(=O)c2c[nH]c(-c3cscn3)c2)cc1F [Cpd 642, N-(4-cyano-2,5-difluorophenyl)-5-(1,3-thiazol-4-yl)-1H-pyrrole-3-sulfonamide]
[2H]C([2H])(c1cccc(F)c1)c1c[nH]cc1S(=O)(=O)Nc1cc(F)c(C#N)cc1F [Cpd 643, N-(4-cyano-2,5-difluorophenyl)-4-((3-fluorophenyl)methyl-d2)-1H-pyrrole-3-sulfonamide]
N#Cc1ccc(F)c(-c2cc(S(=O)(=O)Nc3cc(F)c(C#N)cc3F)c[nH]2)c1 [Cpd 645, N-(4-cyano-2,5-difluorophenyl)-5-(5-cyano-2-fluorophenyl)-1H-pyrrole-3-sulfonamide]
N#Cc1cc(F)c(NS(=O)(=O)c2c[nH]c(-c3ccsn3)c2)cc1F [Cpd 646, N-(4-cyano-2,5-difluorophenyl)-5-(1,2-thiazol-3-yl)-1H-pyrrole-3-sulfonamide]
N#Cc1cc(F)c(NS(=O)(=O)c2c[nH]c(-c3cncs3)c2)cc1F [Cpd 647, N-(4-cyano-2,5-difluorophenyl)-5-(1,3-thiazol-5-yl)-1H-pyrrole-3-sulfonamide]
N#Cc1cc(F)c(NS(=O)(=O)c2c[nH]c(-c3ncc(Cl)s3)c2)cc1F [Cpd 648, 5-(5-chloro-1,3-thiazol-2-yl)-N-(4-cyano-2,5-difluorophenyl)-1H-pyrrole-3-sulfonamide]
Cc1csc(-c2cc(S(=O)(=O)Nc3cc(F)c(C#N)cc3F)c[nH]2)n1 [Cpd 649, N-(4-cyano-2,5-difluorophenyl)-5-(4-methyl-1,3-thiazol-2-yl)-1H-pyrrole-3-sulfonamide]
N#Cc1ccc(F)c(-c2cc(S(=O)(=O)Nc3cc(F)c(OC(F)F)cc3F)c[nH]2)c1 [Cpd 650, 5-(5-cyano-2-fluorophenyl)-N-[4-(difluoromethoxy)-2,5-difluorophenyl]-1H-pyrrole-3-sulfonamide]
N#Cc1cc(F)c(NS(=O)(=O)c2c[nH]c(-c3coc4ccccc34)c2)cc1F [Cpd 651, 5-(1-benzofuran-3-yl)-N-(4-cyano-2,5-difluorophenyl)-1H-pyrrole-3-sulfonamide]
COc1c(F)cccc1-c1cc(S(=O)(=O)Nc2cc(F)c(C#N)cc2F)c[nH]1 [Cpd 652, N-(4-cyano-2,5-difluorophenyl)-5-(3-fluoro-2-methoxyphenyl)-1H-pyrrole-3-sulfonamide]
Cc1occc1-c1cc(S(=O)(=O)Nc2cc(F)c(C(F)(F)F)cc2F)c[nH]1 [Cpd 653, N-[2,5-difluoro-4-(trifluoromethyl)phenyl]-5-(2-methylfuran-3-yl)-1H-pyrrole-3-sulfonamide]
N#Cc1cc(F)c(NS(=O)(=O)c2c[nH]c(-c3cccc(F)c3)c2)cc1F [Cpd 654, N-(4-cyano-2,5-difluorophenyl)-5-(3-fluorophenyl)-1H-pyrrole-3-sulfonamide]

From patent US20240299385A1 (ReWind Therapeutics NV, priority 2021, published 2024)
